These are literature values, as cited in patent publication US8486874B2, “Water-soluble processing oil agent” (Idemitsu Kosan Co., Ltd., priority 2009, dated 2013).

The conditions of data set [1]: Peroral rat.
The conditions of data set [2]: compared with dicyclohexylamine, Table 1 data.
For data set [3] the following is noted: Percutaneous rabbit.

Turning to `C1CCC(NC2CCCCC2)CC1` [Dicyclohexylamine, reference compound], the LD50 result in data set [1] is on record as “LD50 373 mg/kg^1)”.
In the case of `CN(C1CCCCC1)C1CCCCC1` [Methyldicyclohexylamine], the “Toxicity relative to dicyclohexylamine” value in data set [2] is recorded as “considerably lower”. Also, the LD50 result in data set [1] is recorded as “LD50 446 mg/kg^1)”. In data set [3], the LDLo entry was “LDLo 2 g/kg^1)”.
